US20040038952A1, “Pharmaceutical compositions for treatment of digestive disorders and associated diseases” (priority 2000, published 2004)
“Also recorded” adds a separate entry of the source.

Columns and labels:
[1] = tested on: patients affected by either non-ulcer dyspepsia, biliary dyskinesis or irritable bowel syndrome; assay: Open clinical study in digestive disorders: overall (psychosomatic) condition; format: in vivo, human; conditions: % of cases, 3 months, group A 150 mg ursodeoxycholic acid, group B 300 mg quercetin, group C Example 2; for Overall (psychosomatic) condition: Improved: unrestricted fat diet
Description: The patients treated with the composition of the invention during or at the end of the meals were able to digest any type of foods including heavy or spicy ones. […] The improvement of the symptoms of patients treated with the composition of Example 2 was higher than that of the bile acid or bioflavonoid treatment alone.
(§1) In these studies 48 patients affected by either non-ulcer dyspepsia, biliary dyskinesis or irritable bowel syndrome were involved. 24 patients with unrestricted fat diet received only 150 mg of ursodeoxycholic acid (group A) and 24 patients only bioflavonoid (300 mg of quercetin) (group B) for 3 months. After one-month washout both groups received ursodeoxycholic acid+quercetin (Example 2) (group C) for another 3 months.
The overall (psychosomatic) condition and subjective symptoms were compared to the results of an age and sex matched control group.
The evaluation of the psychosomatic condition: improved, unchanged, worsened.

[2] = tested on: patients affected by either non-ulcer dyspepsia, biliary dyskinesis or irritable bowel syndrome; assay: Open clinical study in digestive disorders: subjective gastrointestinal symptoms, grade 0-3; format: in vivo, human; conditions: total number of points/number of patients, 3 months, control group value in brackets
Description: as §1
The gastrointestinal symptoms (postprandial early satiety, abdominal distention or bloating, nausea, vomitus, diarrhea, constipation) were evaluated by using the following grading system:
The treatments A, B and C shown in point 1 were used. In Table 2 the average complaint ratio related to one patient was given (average complaint ratio=total number of points/number of patients). The values of the control groups are given in brackets.

[3] = tested on: female patients affected by digestive disorders, "dry eye" syndrome and premenstrual syndrome; assay: Improvement of activity of fat-soluble substances: "dry eye" syndrome symptoms; format: in vivo, human
Description: (§2) 72 female patients affected by digestive disorders, “dry eye” syndrome and premenstrual syndrome were treated Intramuscularly administered vitamin A improved the symptoms of “dry eye” and premenstral syndrome, but it was ineffective by peroral administration.
The subjective symptoms were evaluated by questionairs by using the following grade:
“Dry eye” syndrome has the following symptoms: sensation of dryness, foreign body, tired eye, soreness, scatchiness, burning, reduced tearing of emotion, difficulties of opening the eye upon waking, episodes of excessive tearing, particular sensibility to wind, air conditioning, smoking, topical medication. Objective signs: particulate matter on the ocular surface, mucusthread at the inner canthus or in the lower fornix, deposits at the orefices of the meibomian glands, filamentary keratitis, hyperemia of the bulbar conjunctiva, papillary hypertrophy of the tarsal conjunctiva, thin tear meniscus, decreased brightness of the bulbar conjunctiva, frequent blinking, tear film abnormalities with fluorescein staining.
The patients were treated as follows:
(§3) Treatment A: 300.000 IU vitamin A in oil intramuscular administration ones per months,
(§4) Treatment B: 50.000 IU vitamin A acetate dragée peroral administration, once every second day,
(§5) Treatment C: 50.000 IU vitamin A acetate dragée peroral administration, once every second day+composition of the invention (Example 4).

[4] = tested on: female patients affected by digestive disorders, "dry eye" syndrome and premenstrual syndrome; assay: Treatment of premenstrual symptoms; format: in vivo, human
Description: as §2, §3, §4, §5
Symptoms of the premenstrual syndrome: food (sweets or chocolate) craving, exhaustion, irritability, fearfullness, anxiety or depression, hostility, feeling out of control, confusion, sleep disturbances, acne, fluid retention, weight gain, breast swelling, aches and pains, bloating, constipation or diarrhoea.
The number of patients, methods of treatment and the grade of evaluation were the same as shown in experiment 3.

[5] = tested on: Dry eye model in Wistar rats by retrobulbar injection of capsaicin; assay: Topical treatment of "dry eye": capsaicin dry eye model; format: in vivo; conditions: one drop 3 times per day
Description: Dry eye model was created in 16 Wistar rats in one eye by retrobulbar injection of capsaicin as it was published in [Camras PCB, Bito L Z: The pathophysiological effects of nitrogen mustard on the rabbit eye. II. The inhibition of the initial hypersensitive phase by capsaicin and the apparent role of substance P. Invest Ophthaimol Vis Sci. 19, 423-8 (1980)], while the other eye (control) was not treated at all.
The following treatments were applied:
A treatment: 4 rats were treated with topical artificial tear drops, one drop 3 times per day;
B treatment: 4 rats were treated with the composition of Example 10, one drop 3 times per day,
C treatment: 4 rats were treated with the composition of Example 10, one drope 3 times per day+one drop of vitamin A 3 times per day (oil drop; 30 000 IU/ml),
D treatment: 4 rats were treated with vitamin A, one drop 3 times per day (oil drop 30 000 IU/ml).
The condition of eyes were registered as written in the literature and evaluated 4 weeks after treatment on the following scale:
1=punctiform ephitelial loss of the cornea;
2=large ephitelial loss of the cornea with mild corneal edema;
3=large ephitelial loss of the cornea with severe corneal edema.

[6] = peroral, 50.000 IU vitamin A acetate dragée once every second day (Treatment B alone, Treatment C + Example 4)
[7] = Treatment A: 300.000 IU vitamin A in oil, intramuscular, once per month

| Compound | Overall (psychosomatic) condition: Unchanged or worsened [1] | Overall (psychosomatic) condition: Improved [1] | Diarrhoea/constipation, average complaint ratio [2] | Meteorism, average complaint ratio [2] | Nausea, average complaint ratio [2] | Satiety, average complaint ratio [2] | Vomitus, average complaint ratio [2] | other results |
| --- | --- | --- | --- | --- | --- | --- | --- | --- |
| O=c1c(O)c(-c2ccc(O)c(O)c2)oc2cc(O)cc(O)c12 [quercetin] | 55% | 45% | 0.63 (2.54) | 1.96 (2.33) | 0.92 (1.25) | 2.04 (2.86) | 0.46 (0.75) | – |
| C[C@H](CCC(=O)O)[C@H]1CC[C@H]2[C@@H]3[C@@H](O)C[C@@H]4C[C@H](O)CC[C@]4(C)[C@H]3CC[C@]12C [ursodeoxycholic acid] | 33% | 67% | 2.19 (2.54) | 2.12 (2.78) | 0.83 (1.17) | 2.06 (2.92) | 0.12 (0.83) | – |
| CC(=O)OC/C=C(C)/C=C/C=C(C)/C=C/C1=C(C)CCCC1(C)C [vitamin A acetate] | – | – | – | – | – | – | – | "Dry eye" symptoms: Improved [3, 6]: 12%; "Dry eye" symptoms: Unchanged [3, 6]: 88%; Premenstrual symptoms: Improved [4, 6]: 8%; Premenstrual symptoms: Unchanged [4, 6]: 92% |
| vitamin A | – | – | – | – | – | – | – | "Dry eye" symptoms: Improved [3, 7]: 80%; "Dry eye" symptoms: Unchanged [3, 7]: 20%; Symptoms of "dry eye", in words ([3]; intramuscular administration): improved; Symptoms of "dry eye", in words ([3]; peroral administration): ineffective; also recorded: improved only weakly; Premenstrual symptoms: Improved [4, 7]: 72%; Premenstrual symptoms: Unchanged [4, 7]: 28%; Symptoms of premenstrual syndrome, in words ([4]; intramuscular administration): improved; Symptoms of premenstrual syndrome, in words ([4]; peroral administration): ineffective; also recorded: hardly improve; Improvement of eye alteration (in words) ([5]; compared to artificial tear drops): not significant; Reduced eye alteration compared to treatment with artificial tear drop (treatment A) ([5]; evaluated 4 weeks after treatment on scale 0-3, vitamin A oil drop 30 000 IU/ml): <5% |
